Where two headings read alike, the source gives them in different places.
Columns and labels:
Aqueous solubility = format: physicochemical
glioblastoma cells = test: Annexin-V/Propidium Iodide apoptosis assay; format: cell-based; settings: combined with siRNA against EGFRvIII (200 nM), polymer 100 μM; SAHA 5 μM, erlotinib 30 μM; versus individual treatments
Excerpt: Cells were harvested by trypsinization and stained using an Annexin V FITC Apoptosis Detection kit (Roche, Cambridge, Mass.) according to the manufacturer's protocol. The stained cells were immediately analyzed by flow cytometry (FACScan; Becton Dickinson, Franklin Lake, N.J.). Early apoptotic cells with exposed phosphatidylserine but intact cell membranes bound to Annexin V-FITC but excluded propidium iodide. Cells in necrotic or late apoptotic stages were labeled with both Annexin V-FITC and propidium iodide.

aqueous solubility (Aqueous solubility) [g/100 mL] | aqueous solubility (Aqueous solubility; drug loaded into / complexed with β-CD cavity) [mg/100 mL] | SMILES | induction of apoptosis (Annexin-V-FITC-positive cells) (glioblastoma cells)
< 1.8 | – | OC[C@H]1O[C@@H]2O[C@H]3[C@H](O)[C@@H](O)[C@@H](O[C@H]4[C@H](O)[C@@H](O)[C@@H](O[C@H]5[C@H](O)[C@@H](O)[C@@H](O[C@H]6[C@H](O)[C@@H](O)[C@@H](O[C@H]7[C@H](O)[C@@H](O)[C@@H](O[C@H]8[C@H](O)[C@@H](O)[C@@H](O[C@H]1[C@H](O)[C@H]2O)O[C@@H]8CO)O[C@@H]7CO)O[C@@H]6CO)O[C@@H]5CO)O[C@@H]4CO)O[C@@H]3CO [CD, β-cyclodextrin] | –
– | – | O=C(CCCCCCC(=O)Nc1ccccc1)NO [SAHA, suberoylanilide hydroxamic acid] | greater induction of apoptosis
– | 178 | C#Cc1cccc(Nc2ncnc3cc(OCCOC)c(OCCOC)cc23)c1 [erlotinib, N-(3-ethynylphenyl)-6,7-bis(2-methoxyethoxy)quinazolin-4-amine] | cooperative induction of apoptosis

From patent US8697667B2, “Cyclodextrin-modified polyamines for delivery of therapeutic molecules” (Rutgers, The State University of New Jersey, priority 2010, dated 2014)
